# Measurements reported in patent US12286443B2, “Bycyclic JAK inhibitors and uses thereof” (Insilico Medicine IP Limited, priority 2019, dated 2025).
# Columns and labels:
# JAK2 = biological target: T1, JAK2 (Homo sapiens, UniProt O60674); test: Inhibition of JAK2 kinase, LANCE Ultra TR-FRET assay; type: biochemical; conditions: 2x ATP 24 μM, 15 min pre-incubation, 90 min reaction, 23° C.
# T1 construct: purchased Invitrogen PV4210
# Summary of the method: (§1)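 Enzyme, 50 nM ULight-JAK-1 peptide and compound (100 μM–1.7 nM, 11 points, duplicates) were preincubated 15 min in HEPES pH 7.5 buffer, and the reaction was started with 2× ATP stock (76 μM JAK1, 24 μM JAK2, 8 μM JAK3, 30 μM TYK2), 90 min, 23° C. Eu anti-phosphotyrosine TR-FRET 665/615; 4-parameter IC50.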
# Hut-78 cells = test: Inhibition in Hut-78 cells (IL-2 stimulated, HTRF); type: cell-based; conditions: Homo sapiens, HuT78; compound 2 hours at 37° C., then IL-2 100 ng/mL 10 min; HTRF; read-out: Hut-78 cells IC50
# Description: Exemplary compounds were assayed to determine potency in inhibiting Hut-78 cells by determining IC50 values.
# Hut-78 cells were cultures in IMDM+20% FBS medium. Cells were maintained in log phase before the assay. Cell pellets were collected and resuspended in serum-free and phenol-free RPMI 1640 medium. 40,000 cells/well (10 μL) were seeded in each well of a 384-well plate and incubated with and without compound for 2 hours at 37° C. and 5% C02. IL-2 was added (2 μL, final concentration 100 ng/mL) and the mixture was incubated for 10 min. Cells were lysed by adding 4 μL labeled antibodies and the mixture was incubated overnight. The plate was read using the HTRF protocol on an Envision plate reader. The data was analyzed using XL-fit software (Supplier: ID business solutions Ltd.; Software version: XL fit 5.0). Inhibition %=(Max−Sample value)/(Max−Min)*100.
# In the table, “A” indicates an IC50 of less than 0.5 μM, “B” indicates an IC50 range from 0.5 μM to 1 μM; and “C” indicates an IC50 range from 1 μM to 10 μM. Also, “na” indicates data is not available.
# TYK2 = biological target: T2, TYK2 (Homo sapiens, UniProt P29597); test: Inhibition of TYK2 kinase, LANCE Ultra TR-FRET assay; type: biochemical; conditions: 4 nM TYK2, 2x ATP 30 μM, 15 min pre-incubation, 90 min reaction, 23° C., read-out: tyk IC50
# T2 construct: purchased Invitrogen PR8440C
# T2 sequence (P29597 whole entry): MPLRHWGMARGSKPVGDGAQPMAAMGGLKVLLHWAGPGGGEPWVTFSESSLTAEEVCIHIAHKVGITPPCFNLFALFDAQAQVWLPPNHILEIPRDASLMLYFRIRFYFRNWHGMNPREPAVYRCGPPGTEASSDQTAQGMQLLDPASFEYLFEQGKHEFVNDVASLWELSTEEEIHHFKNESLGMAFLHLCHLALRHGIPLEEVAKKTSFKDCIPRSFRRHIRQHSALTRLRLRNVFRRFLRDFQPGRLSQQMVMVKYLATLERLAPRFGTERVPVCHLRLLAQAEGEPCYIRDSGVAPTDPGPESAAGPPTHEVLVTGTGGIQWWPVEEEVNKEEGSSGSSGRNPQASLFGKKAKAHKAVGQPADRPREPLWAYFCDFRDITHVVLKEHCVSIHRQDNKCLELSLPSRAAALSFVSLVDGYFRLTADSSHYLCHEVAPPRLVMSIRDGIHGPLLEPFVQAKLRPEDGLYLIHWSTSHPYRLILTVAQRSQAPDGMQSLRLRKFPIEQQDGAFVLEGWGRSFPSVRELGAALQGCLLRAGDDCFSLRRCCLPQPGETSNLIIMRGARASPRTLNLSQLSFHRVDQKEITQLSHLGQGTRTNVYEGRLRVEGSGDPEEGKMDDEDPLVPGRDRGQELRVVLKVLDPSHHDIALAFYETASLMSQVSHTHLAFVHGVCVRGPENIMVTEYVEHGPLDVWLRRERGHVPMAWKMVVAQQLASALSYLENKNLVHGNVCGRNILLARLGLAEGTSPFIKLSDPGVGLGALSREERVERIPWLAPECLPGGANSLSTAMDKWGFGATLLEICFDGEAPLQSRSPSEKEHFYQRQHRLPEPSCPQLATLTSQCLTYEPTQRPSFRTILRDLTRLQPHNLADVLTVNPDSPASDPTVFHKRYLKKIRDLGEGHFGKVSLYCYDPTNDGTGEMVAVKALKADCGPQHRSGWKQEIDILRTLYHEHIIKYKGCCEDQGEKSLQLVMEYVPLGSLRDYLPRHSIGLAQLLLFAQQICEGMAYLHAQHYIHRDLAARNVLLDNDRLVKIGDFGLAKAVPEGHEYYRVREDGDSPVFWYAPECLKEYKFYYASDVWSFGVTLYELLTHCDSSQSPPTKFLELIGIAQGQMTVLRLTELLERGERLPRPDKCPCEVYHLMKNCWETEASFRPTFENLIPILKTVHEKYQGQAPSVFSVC
# Summary of the method: as §1
# JAK3 = biological target: T3, JAK3 (Homo sapiens, UniProt P52333); test: Inhibition of JAK3 kinase, LANCE Ultra TR-FRET assay; type: biochemical; conditions: 2x ATP 8 μM, 15 min pre-incubation, 90 min reaction, 23° C.
# T3 construct: purchased Invitrogen PV4080
# T3 sequence (P52333 1-1124): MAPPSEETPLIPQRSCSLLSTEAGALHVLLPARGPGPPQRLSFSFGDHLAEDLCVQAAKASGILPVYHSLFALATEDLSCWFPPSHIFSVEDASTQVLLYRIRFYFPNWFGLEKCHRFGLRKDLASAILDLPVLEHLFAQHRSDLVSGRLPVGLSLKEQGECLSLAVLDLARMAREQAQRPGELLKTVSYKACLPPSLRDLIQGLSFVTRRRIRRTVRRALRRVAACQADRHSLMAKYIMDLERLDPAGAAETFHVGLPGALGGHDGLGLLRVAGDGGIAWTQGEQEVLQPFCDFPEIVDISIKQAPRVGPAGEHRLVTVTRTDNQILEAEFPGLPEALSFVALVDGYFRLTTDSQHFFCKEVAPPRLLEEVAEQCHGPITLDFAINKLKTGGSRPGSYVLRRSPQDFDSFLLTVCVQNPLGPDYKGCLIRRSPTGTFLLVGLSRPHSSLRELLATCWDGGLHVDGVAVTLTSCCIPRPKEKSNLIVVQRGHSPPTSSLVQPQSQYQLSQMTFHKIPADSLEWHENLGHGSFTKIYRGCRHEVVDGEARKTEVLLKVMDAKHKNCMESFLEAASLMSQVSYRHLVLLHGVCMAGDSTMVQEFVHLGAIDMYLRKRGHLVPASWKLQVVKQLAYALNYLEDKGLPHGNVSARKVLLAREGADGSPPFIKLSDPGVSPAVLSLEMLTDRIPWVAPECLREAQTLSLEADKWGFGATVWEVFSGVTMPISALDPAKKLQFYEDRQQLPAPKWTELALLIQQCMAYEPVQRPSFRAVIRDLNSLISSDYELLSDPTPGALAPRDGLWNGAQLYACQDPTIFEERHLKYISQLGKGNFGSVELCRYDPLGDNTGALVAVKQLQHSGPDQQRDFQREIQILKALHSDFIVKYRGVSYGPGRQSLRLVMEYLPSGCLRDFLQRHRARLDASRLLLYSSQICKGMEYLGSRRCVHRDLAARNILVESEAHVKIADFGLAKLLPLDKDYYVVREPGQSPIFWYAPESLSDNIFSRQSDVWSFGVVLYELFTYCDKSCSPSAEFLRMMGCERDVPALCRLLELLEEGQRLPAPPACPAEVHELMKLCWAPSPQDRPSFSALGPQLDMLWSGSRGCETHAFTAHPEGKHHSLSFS
# Summary of the method: as §1
# JAK1 = biological target: T4, JAK1 (Homo sapiens, UniProt P23458); test: Inhibition of JAK1 kinase, LANCE Ultra TR-FRET assay; type: biochemical; conditions: 2 nM JAK1, 2x ATP 76 μM, 15 min pre-incubation, 90 min reaction, 23° C.
# T4 construct: purchased Invitrogen PV4775
# T4 sequence (P23458 whole entry): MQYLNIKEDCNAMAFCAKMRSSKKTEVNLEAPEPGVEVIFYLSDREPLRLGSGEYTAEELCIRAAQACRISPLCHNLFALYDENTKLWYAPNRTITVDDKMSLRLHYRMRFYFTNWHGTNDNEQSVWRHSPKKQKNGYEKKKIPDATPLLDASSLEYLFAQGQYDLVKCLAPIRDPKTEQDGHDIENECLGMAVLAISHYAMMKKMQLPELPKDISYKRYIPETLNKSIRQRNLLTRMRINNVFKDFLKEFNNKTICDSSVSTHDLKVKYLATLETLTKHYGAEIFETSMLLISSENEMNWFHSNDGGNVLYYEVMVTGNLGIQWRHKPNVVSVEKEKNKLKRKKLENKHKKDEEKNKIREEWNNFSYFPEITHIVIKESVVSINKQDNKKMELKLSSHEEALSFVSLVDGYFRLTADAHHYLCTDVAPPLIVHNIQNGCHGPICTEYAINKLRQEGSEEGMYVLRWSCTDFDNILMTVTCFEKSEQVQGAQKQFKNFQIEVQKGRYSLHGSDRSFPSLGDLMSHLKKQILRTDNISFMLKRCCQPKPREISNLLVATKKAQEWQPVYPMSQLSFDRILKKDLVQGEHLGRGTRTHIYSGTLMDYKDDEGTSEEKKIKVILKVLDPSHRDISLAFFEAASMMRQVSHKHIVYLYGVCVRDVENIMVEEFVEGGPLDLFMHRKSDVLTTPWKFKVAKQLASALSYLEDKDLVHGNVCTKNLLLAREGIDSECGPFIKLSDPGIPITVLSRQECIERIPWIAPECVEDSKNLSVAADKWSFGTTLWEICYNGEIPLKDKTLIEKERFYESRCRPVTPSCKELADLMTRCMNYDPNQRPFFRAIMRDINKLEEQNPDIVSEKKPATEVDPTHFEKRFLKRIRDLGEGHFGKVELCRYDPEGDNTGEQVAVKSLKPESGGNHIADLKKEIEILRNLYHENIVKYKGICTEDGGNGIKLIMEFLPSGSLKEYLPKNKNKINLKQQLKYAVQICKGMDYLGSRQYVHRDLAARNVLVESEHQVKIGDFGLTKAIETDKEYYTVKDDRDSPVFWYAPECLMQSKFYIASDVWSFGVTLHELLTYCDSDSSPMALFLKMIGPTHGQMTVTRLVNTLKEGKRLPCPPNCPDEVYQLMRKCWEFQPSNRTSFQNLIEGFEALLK
# Summary of the method: as §1
# T1 sequence (O60674 whole entry): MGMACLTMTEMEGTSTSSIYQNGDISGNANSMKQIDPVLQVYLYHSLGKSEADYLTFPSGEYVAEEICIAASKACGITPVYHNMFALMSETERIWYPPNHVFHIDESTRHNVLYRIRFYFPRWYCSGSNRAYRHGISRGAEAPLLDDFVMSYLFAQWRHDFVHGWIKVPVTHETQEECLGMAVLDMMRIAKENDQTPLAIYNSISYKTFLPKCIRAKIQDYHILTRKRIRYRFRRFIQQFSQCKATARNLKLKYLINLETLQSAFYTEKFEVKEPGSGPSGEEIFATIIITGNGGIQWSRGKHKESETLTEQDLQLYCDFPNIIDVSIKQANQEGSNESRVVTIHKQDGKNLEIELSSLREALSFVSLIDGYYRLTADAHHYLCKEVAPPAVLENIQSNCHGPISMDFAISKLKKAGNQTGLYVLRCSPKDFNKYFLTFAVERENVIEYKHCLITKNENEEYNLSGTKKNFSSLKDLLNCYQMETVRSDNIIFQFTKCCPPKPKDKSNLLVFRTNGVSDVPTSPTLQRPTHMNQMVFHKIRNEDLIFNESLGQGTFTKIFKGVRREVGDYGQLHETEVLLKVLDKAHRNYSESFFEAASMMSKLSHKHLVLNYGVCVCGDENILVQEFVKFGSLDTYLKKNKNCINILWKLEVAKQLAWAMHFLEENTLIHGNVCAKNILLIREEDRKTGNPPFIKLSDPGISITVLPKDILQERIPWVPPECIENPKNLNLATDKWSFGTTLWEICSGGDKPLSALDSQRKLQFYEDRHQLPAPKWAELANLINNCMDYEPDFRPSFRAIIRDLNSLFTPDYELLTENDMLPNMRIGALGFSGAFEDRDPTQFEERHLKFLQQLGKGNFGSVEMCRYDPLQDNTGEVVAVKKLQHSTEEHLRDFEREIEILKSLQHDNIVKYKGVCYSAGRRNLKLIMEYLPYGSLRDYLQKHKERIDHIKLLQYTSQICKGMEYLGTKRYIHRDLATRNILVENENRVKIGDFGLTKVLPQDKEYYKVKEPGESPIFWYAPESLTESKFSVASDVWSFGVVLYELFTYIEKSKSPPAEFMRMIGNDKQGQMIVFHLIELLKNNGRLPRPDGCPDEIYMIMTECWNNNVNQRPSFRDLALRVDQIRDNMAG
IC50 (JAK2),IC50 (Hut-78 cells),IC50 (TYK2),IC50 (JAK3),IC50 (JAK1),Structure (SMILES)
100 to 500 nM,1000 to 10000 nM,> 2000 nM,< 100 nM,100 to 500 nM,O=C(NCCC(F)(F)F)c1nn(C(=O)CCc2ccccc2)c2c1CN(c1ncnc3[nH]ccc13)CC2 [Compound 103]
< 100 nM,< 500 nM,100 to 500 nM,< 100 nM,< 100 nM,O=C(c1noc2c1CN(c1ncnc3[nH]ccc13)CC2)N1CC(C(F)(F)F)C1 [Compound 194]
